The compounds below were run on Long-Evans rats or squirrel-monkeys (assay: Conditioned avoidance of electric footshock by lever pushing (SIDR)). Details: Rattus norvegicus; species of the result not stated (rats or squirrel-monkeys); read-out: ED50 for blockade of avoidance.
Type: in vivo
Procedure: A representative compound of the invention (identified in the Example 5) was also tested for antipsychotic activity according to the following protocol (SIDR). The noted compound has the indicated EDso values (mg/kg) and is considered active as an antipsychotic agent in the test procedure.
Mature male Long-Evans rats or squirrel-monkeys are conditioned to push a lever in order to avoid a painful electric footshock. If the animal fails to push the lever, he receives a shock every ten seconds until the lever is pushed. Shocks can be terminated by pushing the lever. Thereafter, as long as the lever is pushed at least once every 20 seconds, there will be no shock.
Each animal acts as its own control; one weekly session is used to establish baseline behavior and another session later in the week is used as a drug session. Once patterns of avoidance are established, the effects of standard and unknown compounds are studied.

SMILES	ED50 [mg/kg]
C[C@H]1O[C@@H](n2cnc3c(NC4CCCC4)ncnc32)[C@H](O)[C@@H]1O [Example 5, N^6-[Cyclopentyl]-5'-deoxyadenosine]	2.8

Same assay, conditions: at 4 mg/kg

SMILES	response for blockade of escape [%]
C[C@H]1O[C@@H](n2cnc3c(NC4CCCC4)ncnc32)[C@H](O)[C@@H]1O [Example 5, N^6-[Cyclopentyl]-5'-deoxyadenosine]	10

Each compound was assayed on male Swiss-Webster mice (assay: Antiwrithing (AW) test, acetic acid induced writhing). Details: Mus musculus, ip; administered intraperitoneally to mice; read-out: ED50 (dose necessary to suppress writhing by 50% relative to vehicle controls).
Type: in vivo

SMILES	ED50 [mg/kg]
C[C@H]1O[C@@H](n2cnc3c(NC4CCCC4)ncnc32)[C@H](O)[C@@H]1O [Example 5, N^6-[Cyclopentyl]-5'-deoxyadenosine]	0.9
CSC[C@H]1O[C@@H](n2cnc3c(NC4CCc5ccccc54)ncnc32)[C@H](O)[C@@H]1O (stereo partly shown) [Example 12, N^6-[1-Indanyl]-5'-deoxy-5'-thiomethyladenosine]	3
C[C@H](Cc1ccccc1)Nc1ncnc2c1ncn2[C@@H]1O[C@H](CCl)[C@@H](O)[C@H]1O [Example 15, (R)-N^6-[Phenylisopropyl]-5'-deoxy-5'-chloro-adenosine]	1.8

The compounds below were run against T1, adenosine A1 receptor (Rattus norvegicus, UniProt P25099) (assay: Adenosine Receptor Binding - A1 Receptor Affinity (RBA1), [3H]-CHA displacement). Details: 1.0 nM [3H]-CHA, rat whole brain membranes, one hour at 25°C; read-out: Receptor Binding RBA—1.
T1 construct: brain minus cerebellum and brainstem from male Long Evans rats (150-200 g) was homogenized; from tissue; host or cells: rat whole brain minus cerebellum and brainstem, membrane homogenate
T1 sequence (P25099 1-326): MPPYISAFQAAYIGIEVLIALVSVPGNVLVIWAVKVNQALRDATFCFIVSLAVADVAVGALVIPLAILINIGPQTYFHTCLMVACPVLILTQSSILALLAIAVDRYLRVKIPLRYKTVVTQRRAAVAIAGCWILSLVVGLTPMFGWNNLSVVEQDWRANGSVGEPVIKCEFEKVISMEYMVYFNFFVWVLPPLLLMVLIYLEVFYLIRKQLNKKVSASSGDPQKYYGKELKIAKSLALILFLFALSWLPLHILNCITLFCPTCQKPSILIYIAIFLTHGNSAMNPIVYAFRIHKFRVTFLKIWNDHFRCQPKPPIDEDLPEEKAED
Procedure: While brain minus cerebellum and brainstem from male Long Evans rats (150-200 g) was homogenized in 30 volumes of ice-cold 0.05 M Tris-CHI buffer pH 7.7 using a Brinkman Polytron PT-10, (setting number 6 for 20 seconds) and centrifuged for ten minutes at 20,000 x g (Sorvall RC-2), 4°C. The supernatant was discarded, and the pellet was resuspended and centrifuged as before. The pellet was resuspended in 20 ml Tris-HCI buffer containing two International Units/ml of adenosine deaminase (Sigma type III from calf intestinal mucosa), incubated at 37°C for 30 minutes, then subsequently at 0°C for ten minutes. The homogenate was again centrifuged, and the final pellet was resuspended in ice-cold 0.05 M Tris-HCI buffer pH 7.7 to a concentration of 20 mg/ml original wet tissue weight and used immediately.
Tissue homogenate (10 mg/ml) was incubated in 0.05 M Tris-HCI buffer pH 7.7 containing 1.0 nM (^3H]-N^e-cyclohexyladenosine ([^3H]-CHA) with or without tests agents in triplicate for one hour at 25°C. Incubation volume was 2 ml. Unbound [^3H]-CHA was separated by rapid filtration under reduced pressure through Whatman glass fiber (GF/B) filters. The filters were rinsed three times with 5 ml of ice cold 0.05 M Tris-HCI buffer pH 7.7. The radio-labeled ligand retained on the filter was measured by liquid scintillation spectrophotometry after shaking the filters for one hour or longer on a mechanical shaker in 10 ml of Beckman Ready-Solv HP scintillation cocktail.
Nonspecific binding was defined as the binding which occurred in the presence of 1 mM theophylline. […] The Scatchard plot was calculated by linear regression of the line obtained by plotting the amount of radioligand bound (pmoles/gram of tissue) [formula] Since the amount of radioligand bound was a small fraction of the total amount added, free radioligand was defined as the concentration (nM) of radioligand added to the incubation mixture. The Hill coefficient was calculated by linear regression of the line obtained by plotting the log of the bound radioligand vs the log of the [formula] The maximal number of binding sites (Bmax) was calculated from the Scatchard plot.

SMILES	IC50 [nM]
C[C@H]1O[C@@H](n2cnc3c(NCC(c4ccccc4)c4ccccc4)ncnc32)[C@H](O)[C@@H]1O [Example 1, N^s-[2,2-Diphenylethyl]-5'-deoxyadenosine]	227
C[C@H]1O[C@@H](n2cnc3c(NC4CCc5ccccc54)ncnc32)[C@H](O)[C@@H]1O (stereo partly shown) [Example 2, N^6-[1-Indanyl]-5'-deoxyadenosine]	1680
C[C@H](Cc1ccccc1)Nc1ncnc2c1ncn2[C@@H]1O[C@H](C)[C@@H](O)[C@H]1O [Example 3]	40
C[C@@H](Cc1ccccc1)Nc1ncnc2c1ncn2[C@@H]1O[C@H](C)[C@@H](O)[C@H]1O [Example 4, (S)-N^6-[Phenylisopropyl]-5'-deoxyadenosine]	556
C[C@H]1O[C@@H](n2cnc3c(NC4CCCC4)ncnc32)[C@H](O)[C@@H]1O [Example 5, N^6-[Cyclopentyl]-5'-deoxyadenosine]	16
C[C@H]1O[C@@H](n2cnc3c(NC4CCCCC4)ncnc32)[C@H](O)[C@@H]1O [Example 6, N^6-[Cyclohexyl]-5'-deoxyadenosine]	52
CSC[C@H]1O[C@@H](n2cnc3c(NC4CCCC4)ncnc32)[C@H](O)[C@@H]1O [Example 10, N^6-[Cyclopentyl]-5'-deoxy-5'-thiomethyladenosine]	13
O[C@@H]1[C@H](O)[C@@H](CCl)O[C@H]1n1cnc2c(NCC(c3ccccc3)c3ccccc3)ncnc21 [Example 13, N^6-[2,2-Diphenylethyl]-5'-deoxy-5'-chloroadenosine]	53
C[C@H](Cc1ccccc1)Nc1ncnc2c1ncn2[C@@H]1O[C@H](CCl)[C@@H](O)[C@H]1O [Example 15, (R)-N^6-[Phenylisopropyl]-5'-deoxy-5'-chloro-adenosine]	3

Same assay, conditions: Receptor Binding RBA—1, 1.0 nM [3H]-CHA, rat whole brain membranes, one hour at 25°C

SMILES	IC50 [nM]
CSC[C@H]1O[C@@H](n2cnc3c(NC4CCc5ccccc54)ncnc32)[C@H](O)[C@@H]1O (stereo partly shown) [Example 12, N^6-[1-Indanyl]-5'-deoxy-5'-thiomethyladenosine]	1490

These compounds were tested against T2, adenosine A2 receptor (Rattus norvegicus, UniProt P30543) (assay: Adenosine Receptor Binding - A2 Receptor Affinity (RBA2), [3H]NECA displacement). Details: 4 nM [3H]NECA with 50 nM N6-cyclopentyladenosine, rat striatal membranes, 60 minutes at 25°C; read-out: Receptor Binding RBA—2.
T2 construct: Brains were thawed and then kept on ice while the striata were dissected out; tissue Pel-Freez (Rogers, Arkansas); host or cells: rat striatum, membranes
Procedure: Brains from 200-500 g mixed sex Sprague-Dawley rats were purchased from Pel-Freez (Rogers, Arkansas). Fresh brains from male Long-Evans hooded rats (Blue Spruce Farms, Altamont, NY) gave essentially indentical results. Brains were thawed and then kept on ice while the striata were dissected out. Striata were disrupted in 10 vol of ice-cold 50 mM Tris.HCI (pH 7.7 at 25°C, pH 8.26 at 5°C) (Tris) for 30 seconds in a Polytron PT―10 (Brinkmann) at setting 5. The suspension was centrifuged at 50,000 xg for ten minutes, the supernatant discarded, the pellet resuspended in 10 vol ice-cold Tris as above, recentrifuged, resuspended at 1 g/5 ml, and stored in plastic vials at -70°C (stable for at least six months). When needed, tissue was thawed at room temperature, disrupted in a Polytron, and kept on ice until used.
All incubations were for 60 minutes at 25°C in 12x75 mm glass tubes containing 1 ml Tris with 5 mg original tissue weight of rat weight of rat striatal membranes, 4 nM [^3H]-N-ethyl adenosine-5'-carboxamide ([^3H]NECA), 50 nM N^6-cyclopentyladenosine (to eliminate A1 receptor binding), 10 mM MgCl2, 0.1 units/ml, of adenosine deaminase and 1% dimethylsulfoxide. N^6-Cyclopentyladenosine was dissolved at 10 mM in 0.02 N HCI and diluted in Tris. Stock solutions and dilutions of N^6-cyclopentyladenosine could be stored at -20°C for several months. Test compounds were dissolved at 10 mM in dimethylsulfoxide or the same day as the experiment, and diluted in dimethylsulfoxide to 100x the final incubation concentration. Control incubations received an equal volume (10 µl) of dimethylsulfoxide; the resulting concentration of dimethylsulfoxide had no effect on binding. [^3H]NECA was diluted to 40 nM in Tris. The membrane suspension (5 mg/0.79 ml) contained sufficient MgCl2 and adenosine deaminase to give 10 mM and 0.1 units/ml, respectively, final concentration in the incubation. […] After all additions, the rack of tubes was vortexed, and the tubes were then incubated for 60 min at 25°C in a shaking water bath. The rack of tubes was vortexed an additonal time halfway through the incubation.
Incubations were terminated by filtration through 2.4 cm GF/B filters under reduced pressure. Each tube was filtered as follows: the contents of the tube were poured onto the filter, 4 ml of ice-cold Tris were added to the tube and the contents poured onto the filter, and the filter was washed twice with 4 ml of ice-cold Tris. The filtration was complete in about twelve seconds. Filters were put in scintillation vials, 8 ml of Formula 947 scintillation fluid added, and the vials left overnight, shaken, and counted in a liquid scintillation counter at 40% efficiency.
Nonspecific binding was defined as binding in the presence of […] N^6-cyclopentyladenosine, and specific binding was defined as total binding minus nonspecific binding. The IC50 was calculated by weighted nonlinear least squares curve-fitting to the mass-action equation. [formula] • where Y is cpm bound T is cpm total binding without drug S is cpm specific binding without drug D is the concentration of drug • and K is the IC50 of the drug Weighting factors were calculated under the assumption that the standard deviation was proportional to the predicted value of Y. Nonspecific binding was treated as a very large (infinite) concentration of drug in the computer analysis.

T2 sequence (P30543 whole entry): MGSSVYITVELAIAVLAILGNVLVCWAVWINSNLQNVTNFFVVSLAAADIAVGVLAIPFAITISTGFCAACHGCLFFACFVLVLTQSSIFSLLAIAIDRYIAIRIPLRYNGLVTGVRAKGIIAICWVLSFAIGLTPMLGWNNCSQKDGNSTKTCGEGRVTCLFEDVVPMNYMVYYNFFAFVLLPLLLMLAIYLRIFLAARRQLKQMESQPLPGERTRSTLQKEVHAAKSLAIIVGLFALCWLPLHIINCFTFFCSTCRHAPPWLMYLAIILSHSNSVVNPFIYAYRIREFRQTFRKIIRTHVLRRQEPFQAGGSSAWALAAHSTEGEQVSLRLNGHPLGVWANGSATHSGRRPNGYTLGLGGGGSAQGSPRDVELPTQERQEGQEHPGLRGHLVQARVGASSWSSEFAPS

SMILES	IC50 [nM]
C[C@H]1O[C@@H](n2cnc3c(NCC(c4ccccc4)c4ccccc4)ncnc32)[C@H](O)[C@@H]1O [Example 1, N^s-[2,2-Diphenylethyl]-5'-deoxyadenosine]	1110
C[C@H]1O[C@@H](n2cnc3c(NC4CCc5ccccc54)ncnc32)[C@H](O)[C@@H]1O (stereo partly shown) [Example 2, N^6-[1-Indanyl]-5'-deoxyadenosine]	21200
C[C@H](Cc1ccccc1)Nc1ncnc2c1ncn2[C@@H]1O[C@H](C)[C@@H](O)[C@H]1O [Example 3]	5700
C[C@@H](Cc1ccccc1)Nc1ncnc2c1ncn2[C@@H]1O[C@H](C)[C@@H](O)[C@H]1O [Example 4, (S)-N^6-[Phenylisopropyl]-5'-deoxyadenosine]	20000
C[C@H]1O[C@@H](n2cnc3c(NC4CCCC4)ncnc32)[C@H](O)[C@@H]1O [Example 5, N^6-[Cyclopentyl]-5'-deoxyadenosine]	17200
C[C@H]1O[C@@H](n2cnc3c(NC4CCCCC4)ncnc32)[C@H](O)[C@@H]1O [Example 6, N^6-[Cyclohexyl]-5'-deoxyadenosine]	21400
CSC[C@H]1O[C@@H](n2cnc3c(NC4CCCC4)ncnc32)[C@H](O)[C@@H]1O [Example 10, N^6-[Cyclopentyl]-5'-deoxy-5'-thiomethyladenosine]	7200
CSC[C@H]1O[C@@H](n2cnc3c(NC4CCc5ccccc54)ncnc32)[C@H](O)[C@@H]1O (stereo partly shown) [Example 12, N^6-[1-Indanyl]-5'-deoxy-5'-thiomethyladenosine]	58200
O[C@@H]1[C@H](O)[C@@H](CCl)O[C@H]1n1cnc2c(NCC(c3ccccc3)c3ccccc3)ncnc21 [Example 13, N^6-[2,2-Diphenylethyl]-5'-deoxy-5'-chloroadenosine]	240
C[C@H](Cc1ccccc1)Nc1ncnc2c1ncn2[C@@H]1O[C@H](CCl)[C@@H](O)[C@H]1O [Example 15, (R)-N^6-[Phenylisopropyl]-5'-deoxy-5'-chloro-adenosine]	1600

Reference: EP0181129B1, “N6-substituted deoxyribose analogs of adenosines” (WARNER-LAMBERT COMPANY, priority 1984, dated 1986)
